Structures can show the parent of a compound that is named as a salt. Where two headings read alike, the source gives them in different places.
Key:
EcaGST A3-3 [1] = molecular target: T1, EcaGST A3-3 (Equus caballus, UniProt M9ZT87); experiment: Inhibition of EcaGST A3-3 activity, GSH conjugation with CDNB; assay type: biochemical, Equus ferus caballus; settings: for inhibition at 10 µM: read-out: Inhibition (%) of EcaGST A3-3; for IC50: read-out: IC50 EcaGST A3-3, substrate CDNB; for Hill coefficient, CDNB inhibition: dose-response curve, substrate CDNB, mean ± SD
Description: The final solvent concentration in the reaction system was kept at 5% (v/v) as a maximum.
(§1) The conjugation of GSH with the electrophilic substrate CDNB was used as a biochemical assay for general activity measurements. Screening of the US Drug library for inhibition was done in triplicates in 96-well plates in a Thermo Scientific Multiskan GO spectrophotometer. The conjugation activity at 30°C was monitored at 340 nm for 1 min in 0.1 M sodium phosphate buffer at pH 6.5 and 10 μM inhibitor concentration in a final volume of 300 μL. Initial concentrations of GSH and CDNB were 1 mM.
Assay conditions for inhibition measurements of enzyme activity with CDNB were the following: EcaGST A3-3 15 nM, initial concentrations of GSH and CDNB 1 mM, inhibitor concentrations varying from 0.029 μM to 15 μM, in 100 mM Na2HPO4/NaH2PO4 at pH 6.5.
The reactions were followed spectrophotometrically for 1 min at 30°C using a Shimadzu UV-2501 PC spectrophotometer (Shimadzu Inc.). All experiments included triplicate measurements in each data point.
The equation for competitive inhibition fitted by non-linear regression was v=Vmax[S]/KM(1+[I]/Ki)+[S] where [S] is the substrate concentrations and [I] is the inhibitor concentration.

EcaGST A3-3 [2] = molecular target: T1, EcaGST A3-3; experiment: Inhibition of EcaGST A3-3 steroid double-bond isomerase activity with Δ^5-AD; assay type: biochemical, Equus ferus caballus; settings: for Hill coefficient, Δ^5-AD inhibition: dose-response curve, substrate Δ^5-AD, mean ± SD
HsaGST P1-1 = tested on: HsaGST P1-1; set-up: method as in PMID 23769903; settings: 3.3 μM inhibitor, 1 mM GSH, 1 mM CDNB, pH 6.5, 30°C; cited from earlier work
HsaGST S1-1 = tested on: HsaGST S1-1; set-up: method as in PMID 25603235; settings: 1 mM GSH, 1 mM CDNB, pH 6.5, 30°C, cited from earlier work; for Inhibition (%) of HsaGST S1-1: 10 μM inhibitor; for IC50: CDNB activity
HsaGST M2-2 = molecular target: T2, HsaGST M2-2 (Homo sapiens, UniProt P28161); experiment: Inhibition of HsaGST M2-2 CDNB activity; assay type: biochemical; settings: 1 mM GSH, 1 mM CDNB, pH 6.5, 30°C; for inhibition at 10 µM: 10 μM inhibitor; for IC50: CDNB activity, read-out: IC50 HsaGST M2-2
T2 construct: made in house
T2 sequence (P28161 1-218): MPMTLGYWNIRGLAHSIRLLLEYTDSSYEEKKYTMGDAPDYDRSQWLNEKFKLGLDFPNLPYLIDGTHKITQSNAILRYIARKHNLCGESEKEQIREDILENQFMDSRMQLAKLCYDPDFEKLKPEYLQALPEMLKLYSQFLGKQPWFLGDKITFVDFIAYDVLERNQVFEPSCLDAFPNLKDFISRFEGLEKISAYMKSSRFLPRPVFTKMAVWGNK
Description: (§2) EcaGST A3-3 [10], HsaGST A3-3 [12] and HsaGST M2-2 [13] were cloned, expressed and purified as described previously. Protein concentration was determined by means of the Bradford assay.
as §1
(§3) For understanding the effects of pharmacological interventions based on GST inhibitors, it is important to know the selectivity among the numerous GSTs. […] All values were determined with CDNB, which is a common substrate for all the enzymes.

HsaGST A3-3 = molecular target: T3, HsaGST A3-3 (Homo sapiens, UniProt Q16772); experiment: Inhibition of HsaGST A3-3 CDNB activity; assay type: biochemical; settings: 1 mM GSH, 1 mM CDNB, pH 6.5, 30°C; for IC50: CDNB activity; for inhibition at 10 µM: pH 6.5, 10 μM inhibitor, read-out: Inhibition (%) of HsaGST A3-3
T3 construct: made in house
T3 sequence (Q16772 1-222): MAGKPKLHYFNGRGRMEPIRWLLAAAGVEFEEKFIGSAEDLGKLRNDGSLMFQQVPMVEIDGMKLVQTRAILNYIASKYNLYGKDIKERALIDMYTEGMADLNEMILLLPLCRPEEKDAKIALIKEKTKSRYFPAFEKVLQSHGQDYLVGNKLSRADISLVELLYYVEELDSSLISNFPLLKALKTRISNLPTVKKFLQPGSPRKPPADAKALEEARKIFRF
Description: as §2, §1, §3

[3] = 10 μM inhibitor, 1 mM GSH, 1 mM CDNB, sodium phosphate pH 6.5, 30°C
[4] = 1 mM CDNB, 1 mM GSH, 100 mM sodium phosphate pH 6.5, 30°C
[5] = 0.1 mM Δ^5-AD, 1 mM GSH, 25 mM sodium phosphate pH 8.0, 30°C

T1 sequence (M9ZT87 entry or part of it): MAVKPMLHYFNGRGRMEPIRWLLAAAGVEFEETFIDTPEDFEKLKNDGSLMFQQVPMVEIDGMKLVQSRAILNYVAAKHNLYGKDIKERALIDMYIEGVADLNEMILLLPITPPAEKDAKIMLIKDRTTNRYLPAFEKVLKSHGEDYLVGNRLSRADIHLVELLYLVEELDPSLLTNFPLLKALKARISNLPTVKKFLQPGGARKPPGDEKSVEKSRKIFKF

In the case of `CC[C@H](C)C(=O)O[C@H]1C[C@@H](C)C=C2C=C[C@H](C)[C@H](CC[C@@H]3C[C@@H](O)CC(=O)O3)[C@H]21` [Lovastatin], the inhibition at 10 µM (EcaGST A3-3 [1]; [3]) is reported as 33 ± 15%.

`COC(=O)Nc1nc2ccc(C(=O)c3ccccc3)cc2[nH]1` [Mebendazole] showed an inhibition at 10 µM (EcaGST A3-3 [1]; [3]) of 35 ± 15%.

For `CC(C)NCC(O)c1cc(O)cc(O)c1` (centres unmarked) [Metaproterenol], the inhibition at 10 µM (EcaGST A3-3 [1]; [3]) was 42 ± 24%.

For `COC(=O)C1=C(C)NC(C)=C(C(=O)OCC(C)C)C1c1ccccc1[N+](=O)[O-]` (centres unmarked) [Nisoldipine], the inhibition at 10 µM (EcaGST A3-3 [1]; [3]) was 75 ± 2.3%, the “IC50 EcaGST A3-3, substrate CDNB” value (EcaGST A3-3 [1]; [4]) was “Anomalous curve” and the “IC50 EcaGST A3-3, substrate Δ^5-AD” value (EcaGST A3-3 [2]; [5]) was “Anomalous curve”. For the same compound, the “Inhibition (%) of HsaGST P1-1” value (HsaGST P1-1) was 14%, the “Inhibition (%) of HsaGST S1-1” value (HsaGST S1-1) was 42% and the IC50 (HsaGST S1-1) was 29000 nM. It also gave an inhibition at 10 µM (HsaGST M2-2; read-out: Inhibition (%) of HsaGST M2-2) of 35%, an IC50 (HsaGST A3-3) of 4100 nM and an inhibition at 10 µM (HsaGST A3-3) of 70%.

With `CN1CCCN=C1/C=C/c1cccc(O)c1` [Oxantel pamoate] the IC50 (HsaGST M2-2) was 1700 nM.

With `CCc1ccc(CCOc2ccc(CC3SC(=O)NC3=O)cc2)nc1` (centres unmarked) [Pioglitazone] the IC50 (HsaGST M2-2) was 5900 nM.

In the case of `Nc1ccc(C(=O)[O-])cc1.[K+]` [Potassium p-aminobenzoate], the “Inhibition (%) of EcaGST A3-3” value (EcaGST A3-3 [1]; [3]) is reported as 30±16%.

`CN1CCCN=C1/C=C/c1cccs1` [Pyrantel pamoate] gave an IC50 (HsaGST M2-2) of 1400 nM.

`Cc1cc(/C=C/c2ccc3cc(N(C)C)ccc3[n+]2C)c(C)n1-c1ccccc1` [Pyrvinium pamoate] showed an IC50 (HsaGST M2-2) of 1200 nM.

With `C[n+]1cc2c3c(ccc2c2ccc4cc5c(cc4c21)OCO5)OCO3` [Sanguinarine sulfate] the inhibition at 10 µM (EcaGST A3-3 [1]; [3]) was 47 ± 19%.

In the case of `O=C(O)c1cc(O)c2c(c1)[C@H]([C@H]1c3cc(C(=O)O)cc(O)c3C(=O)c3c(O[C@@H]4O[C@H](CO)[C@@H](O)[C@H](O)[C@H]4O)cccc31)c1cccc(O[C@@H]3O[C@H](CO)[C@@H](O)[C@H](O)[C@H]3O)c1C2=O` [Sennoside A], the inhibition at 10 µM (EcaGST A3-3 [1]; [3]) is reported as 100%, the IC50 (EcaGST A3-3 [1]; [4]) is reported as 2800 ± 280 nM and the “Hill coefficient, CDNB inhibition” value (EcaGST A3-3 [1]) is reported as 2.2±0.41. For the same compound, the IC50 (EcaGST A3-3 [2]) was 110 ± 8.2 nM, the “IC50 EcaGST A3-3, substrate Δ^5-AD” value (EcaGST A3-3 [2]; [5]) was “submicromolar range” and the “Hill coefficient, Δ^5-AD inhibition” value (EcaGST A3-3 [2]) was 2.1±0.29. The “Times more potent with Δ^5-AD as substrate than with CDNB” value (EcaGST A3-3 [2]; ratio of IC50 values CDNB vs Δ^5-AD, EcaGST A3-3) was “approximately 25 times”, the “Inhibition (%) of HsaGST P1-1” value (HsaGST P1-1) was less than 4% and the “Inhibition (%) of HsaGST S1-1” value (HsaGST S1-1) was 30%. For the same compound, the IC50 (HsaGST S1-1) was 39000 nM, the inhibition at 10 µM (HsaGST M2-2; read-out: Inhibition (%) of HsaGST M2-2 (symbol)) was less than 30% and the IC50 (HsaGST A3-3) was 980 nM. It also gave an inhibition at 10 µM (HsaGST A3-3) of 90%.

With `O=C(O)c1cc(/N=N/c2ccc(S(=O)(=O)Nc3ccccn3)cc2)ccc1O` [Sulfasalazine] the inhibition at 10 µM (EcaGST A3-3 [1]; [3]) was no more than 30% and the IC50 (HsaGST M2-2) was 300 nM.

Compound `CC1=C(CC(=O)O)c2cc(F)ccc2/C1=C\c1ccc([S+](C)[O-])cc1` (centres unmarked) [Sulindac] has an IC50 (HsaGST M2-2) of 23000 nM.

In the case of `Cc1ccc(C(=O)Nc2ccc(S(=O)(=O)O)c3cc(S(=O)(=O)O)cc(S(=O)(=O)O)c23)cc1NC(=O)c1cccc(NC(=O)Nc2cccc(C(=O)Nc3cc(C(=O)Nc4ccc(S(=O)(=O)O)c5cc(S(=O)(=O)O)cc(S(=O)(=O)O)c45)ccc3C)c2)c1` [Suramin], the inhibition at 10 µM (EcaGST A3-3 [1]; [3]) is listed as no more than 30%, the IC50 (HsaGST S1-1) is listed as 300 nM and the IC50 (HsaGST M2-2) is listed as 620 nM.

With `O=C(OCC1OC(OC(=O)c2cc(O)c(O)c(OC(=O)c3cc(O)c(O)c(O)c3)c2)C(OC(=O)c2cc(O)c(O)c(OC(=O)c3cc(O)c(O)c(O)c3)c2)C(OC(=O)c2cc(O)c(O)c(OC(=O)c3cc(O)c(O)c(O)c3)c2)C1OC(=O)c1cc(O)c(O)c(OC(=O)c2cc(O)c(O)c(O)c2)c1)c1cc(O)c(O)c(OC(=O)c2cc(O)c(O)c(O)c2)c1` (centres unmarked) [Tannic acid] the IC50 (EcaGST A3-3 [1]; [4]) was 330 ± 18 nM, the “Hill coefficient, CDNB inhibition” value (EcaGST A3-3 [1]) was 2.2±0.23 and the “IC50 EcaGST A3-3, substrate Δ^5-AD” value (EcaGST A3-3 [2]; [5]) was “submicromolar range”. The “Hill coefficient, Δ^5-AD inhibition” value (EcaGST A3-3 [2]) was 2.1±0.63, the IC50 (EcaGST A3-3 [2]; read-out: IC50 EcaGST A3-3, substrate Δ^5-AD, 0.1 mM Δ^5-AD, 1 mM GSH, 25 mM sodium phosphate pH 8.0, 30°C) was 220 ± 34 nM and the “Inhibition (%) of HsaGST P1-1” value (HsaGST P1-1) was less than 4%. The “Inhibition (%) of HsaGST S1-1” value (HsaGST S1-1) was 100%, the IC50 (HsaGST S1-1) was 350 nM and the IC50 (HsaGST M2-2) was 1200 nM. It also gave an IC50 (HsaGST A3-3) of 210 nM.
